Converted amounts (≈) assume the structure as drawn.
Columns and labels:
Urinary bladder = test: Inhibition of KCL-induced contraction in rat urinary bladder; type: functional, tissue-based; conditions: Urinary bladder smooth muscle
[1] = biological target: T1, C-X-C chemokine receptor type 1 (Homo sapiens, UniProt P25024); test: Binding affinity to human CXCR1 assessed as dissociation constant incubated for 6 to 24 hrs by radioligand binding assay
T1 sequence (P25024 whole entry): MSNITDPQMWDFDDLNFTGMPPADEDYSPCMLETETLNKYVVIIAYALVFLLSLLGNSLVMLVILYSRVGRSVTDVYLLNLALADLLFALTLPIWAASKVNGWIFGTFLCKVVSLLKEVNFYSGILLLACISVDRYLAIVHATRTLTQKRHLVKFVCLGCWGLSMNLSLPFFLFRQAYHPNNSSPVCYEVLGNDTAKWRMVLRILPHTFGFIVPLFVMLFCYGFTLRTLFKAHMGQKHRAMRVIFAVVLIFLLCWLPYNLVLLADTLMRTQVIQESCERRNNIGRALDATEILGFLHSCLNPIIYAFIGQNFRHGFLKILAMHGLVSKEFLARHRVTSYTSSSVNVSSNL

[2] = biological target: T2, C-X-C chemokine receptor type 2 (Homo sapiens, UniProt P25025); test: Binding affinity to human CXCR2 assessed as dissociation constant incubated for 6 to 24 hrs by radioligand binding assay
T2 sequence (P25025 whole entry): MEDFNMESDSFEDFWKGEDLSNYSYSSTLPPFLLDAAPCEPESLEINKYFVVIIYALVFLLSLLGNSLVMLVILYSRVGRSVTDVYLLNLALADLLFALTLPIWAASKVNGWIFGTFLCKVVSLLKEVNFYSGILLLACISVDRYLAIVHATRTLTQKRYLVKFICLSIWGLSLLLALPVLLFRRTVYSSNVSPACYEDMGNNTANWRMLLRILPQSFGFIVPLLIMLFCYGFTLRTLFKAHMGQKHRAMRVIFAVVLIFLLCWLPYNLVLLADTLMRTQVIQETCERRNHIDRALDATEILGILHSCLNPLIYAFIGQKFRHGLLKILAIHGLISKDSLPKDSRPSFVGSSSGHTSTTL

[3] = biological target: T1, C-X-C chemokine receptor type 1; test: Inhibition of human CXCR1
Leishmania infantum = test: Antileishmanial activity against promastigote stage of Leishmania infantum MCAN/ES/2001/UCM-10 incubated for 72 hrs by Neubauer haemocytometric chamber analysis; type: functional, organism-based; conditions: MCAN/ES/2001/UCM-10, 72 h
Leishmania braziliensis = test: Antileishmanial activity against promastigote stage of Leishmania braziliensis MHOM/BR/1975/M2904 incubated for 72 hrs by Neubauer haemocytometric chamber analysis; type: functional, organism-based; conditions: MHOM/BR/1975/M2904, 72 h
Leishmania donovani = test: Antileishmanial activity against promastigote stage of Leishmania donovani MHOM/PE/84/LC26 incubated for 72 hrs by Neubauer haemocytometric chamber analysis; type: functional, organism-based; conditions: MHOM/PE/84/LC26, 72 h
HeLa = test: Cytotoxicity against human HeLa cells assessed as reduction in cell viability incubated for 24 hrs by MTT assay; type: functional, cell-based
Cholinesterase = Cholinesterase (Homo sapiens, UniProt P06276); test: Inhibition of human BchE by spectrophotometric analysis
Acetylcholinesterase = Acetylcholinesterase (Homo sapiens, UniProt P22303); test: Inhibition of human AchE by spectrophotometric analysis
[4] = Inhibition of Yersinia pestis PTP
[5] = biological target: T3, Type-2 angiotensin II receptor (Homo sapiens, UniProt P50052); test: Inhibition of Angiotensin 2 binding to Angiotensin 2 receptor (unknown origin)
T3 sequence (P50052 whole entry): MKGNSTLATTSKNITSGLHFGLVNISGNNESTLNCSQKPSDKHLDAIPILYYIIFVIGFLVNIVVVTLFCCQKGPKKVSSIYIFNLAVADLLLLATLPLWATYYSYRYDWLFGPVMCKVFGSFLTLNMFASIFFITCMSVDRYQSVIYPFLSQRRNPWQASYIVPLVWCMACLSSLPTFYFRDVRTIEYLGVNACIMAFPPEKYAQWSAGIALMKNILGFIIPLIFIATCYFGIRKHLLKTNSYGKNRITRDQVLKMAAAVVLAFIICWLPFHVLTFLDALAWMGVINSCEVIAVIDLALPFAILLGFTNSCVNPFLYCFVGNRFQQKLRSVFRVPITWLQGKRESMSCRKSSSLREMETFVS

Helicobacter pylori = test: Antibacterial activity against Helicobacter pylori assessed as bacterial growth inhibition; type: functional
Interstitial collagenase = biological target: T4, Interstitial collagenase (Homo sapiens, UniProt P03956); test: Inhibition of MMP-1 (unknown origin) using DnpPro-Cha-Gly-Cys(Me)-His-Ala-Lys(Nma)-NH2 as substrate by fluorescence spectroscopy
T4 sequence (P03956 whole entry): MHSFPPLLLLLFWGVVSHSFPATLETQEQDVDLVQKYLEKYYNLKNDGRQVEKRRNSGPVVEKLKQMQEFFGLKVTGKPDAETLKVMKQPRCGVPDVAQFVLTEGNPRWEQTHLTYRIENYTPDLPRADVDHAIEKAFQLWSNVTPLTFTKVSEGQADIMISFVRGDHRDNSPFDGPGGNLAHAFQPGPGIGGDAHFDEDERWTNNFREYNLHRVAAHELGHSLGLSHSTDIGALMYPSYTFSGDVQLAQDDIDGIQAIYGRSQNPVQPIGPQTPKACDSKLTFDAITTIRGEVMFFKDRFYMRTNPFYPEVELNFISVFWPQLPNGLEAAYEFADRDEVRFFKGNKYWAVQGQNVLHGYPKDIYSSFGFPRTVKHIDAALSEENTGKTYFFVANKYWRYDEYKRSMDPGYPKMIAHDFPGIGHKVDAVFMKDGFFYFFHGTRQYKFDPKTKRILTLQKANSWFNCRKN

[6] = Dissociation constant, pKa of the compound; type: physicochemical
[7] = Toxicity in Swiss albino mouse assessed as lethality pretreated for 30 mins followed by NMDA stimulation and measured after 30 mins; conditions: in vivo, 1 h, time 60 min
[8] = biological target: Glutamate [NMDA] receptor; test: Binding affinity to NMDA receptor (unknown origin); type: protein-complex assay, Homo sapiens
[9] = biological target: Glutamate [NMDA] receptor; test: Binding affinity to TCP-stimulated NMDA (unknown origin); type: protein-complex assay, Homo sapiens

Chain of Cholinesterase (P06276 whole entry): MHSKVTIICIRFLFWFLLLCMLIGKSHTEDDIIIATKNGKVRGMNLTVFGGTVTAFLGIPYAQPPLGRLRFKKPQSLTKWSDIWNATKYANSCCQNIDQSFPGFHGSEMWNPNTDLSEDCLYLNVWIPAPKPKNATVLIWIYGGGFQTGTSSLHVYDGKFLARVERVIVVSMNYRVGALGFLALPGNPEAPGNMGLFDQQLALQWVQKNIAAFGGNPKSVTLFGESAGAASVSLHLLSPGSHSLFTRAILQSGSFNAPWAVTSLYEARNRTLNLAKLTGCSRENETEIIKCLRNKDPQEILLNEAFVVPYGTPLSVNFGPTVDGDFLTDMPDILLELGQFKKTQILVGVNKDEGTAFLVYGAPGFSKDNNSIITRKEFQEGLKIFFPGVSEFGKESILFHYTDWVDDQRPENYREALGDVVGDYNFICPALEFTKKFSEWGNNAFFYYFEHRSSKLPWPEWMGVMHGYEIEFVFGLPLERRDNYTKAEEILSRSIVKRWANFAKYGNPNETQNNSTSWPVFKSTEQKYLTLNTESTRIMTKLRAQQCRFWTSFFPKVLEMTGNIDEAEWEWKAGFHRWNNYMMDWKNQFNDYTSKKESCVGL
Chain of Acetylcholinesterase (P22303 whole entry): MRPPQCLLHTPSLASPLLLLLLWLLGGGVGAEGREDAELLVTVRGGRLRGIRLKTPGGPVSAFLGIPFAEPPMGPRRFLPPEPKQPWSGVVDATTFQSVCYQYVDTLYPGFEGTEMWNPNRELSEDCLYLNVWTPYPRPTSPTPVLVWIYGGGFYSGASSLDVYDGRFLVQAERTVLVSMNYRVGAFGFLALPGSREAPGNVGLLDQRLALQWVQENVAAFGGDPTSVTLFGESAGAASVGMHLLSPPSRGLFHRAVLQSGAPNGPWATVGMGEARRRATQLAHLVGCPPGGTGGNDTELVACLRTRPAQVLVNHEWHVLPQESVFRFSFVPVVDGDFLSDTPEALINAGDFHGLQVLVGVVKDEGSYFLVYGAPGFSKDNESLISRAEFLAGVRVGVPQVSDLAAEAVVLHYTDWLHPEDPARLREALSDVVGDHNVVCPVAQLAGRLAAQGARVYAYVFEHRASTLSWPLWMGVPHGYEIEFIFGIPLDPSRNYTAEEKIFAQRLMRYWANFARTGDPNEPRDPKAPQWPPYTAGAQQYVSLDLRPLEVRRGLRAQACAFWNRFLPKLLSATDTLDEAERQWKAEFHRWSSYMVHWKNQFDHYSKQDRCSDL

CCc1cc(C#N)ccc1Nc1c(N[C@H](C)C(C)(C)C)c(=O)c1=O
IC50 (Urinary bladder): 90 nM

CC[C@@H](Nc1c(Nc2cccc(C(=O)N(C)C)c2O)c(=O)c1=O)c1ccco1
Kd [1]: 3.9 nM | Kd [2]: 0.049 nM

CCC(CC)Nc1c(Nc2cccc(C(=O)N(C)C)c2O)c(=O)c1=O
IC50 [3]: 15 nM

O=c1c(Nc2ccccc2)c(Nc2ccc([N+](=O)[O-])cc2O)c1=O
IC50 [3]: 36 nM

CC[C@@H](Nc1c(Nc2cccc(C(=O)N(C)C)c2O)c(=O)c1=O)c1ccccc1
IC50 [3]: 6.8 nM

CCCCNc1c(N(C)CCCN(C)C)c(=O)c1=O
IC50 (Leishmania infantum): 18000 nM | IC50 (Leishmania braziliensis): 17300 nM

O=c1c(NCc2ccccc2)c(NC2CCN(Cc3ccccc3)CC2)c1=O
IC50 (Leishmania donovani): 17900 nM

COc1c(Nc2ccc3ccccc3c2-c2c(O)ccc3ccccc23)c(=O)c1=O
IC50 (HeLa): 46700 nM

O=c1c(NCCCCCCCc2c3c(nc4ccccc24)CCCC3)c(NCCCCCCCc2c3c(nc4ccccc24)CCCC3)c1=O
IC50 (Cholinesterase): 21 nM | IC50 (Acetylcholinesterase): 13 nM

COc1c(Nc2ccc3c4c(cccc24)-c2ccccc2-3)c(=O)c1=O
IC50 (HeLa): 880 nM

O=c1c(O)c(-c2ccc([N+](=O)[O-])cc2)c1=O
IC50 [4]: 120000 nM

O=c1c(O)c(-c2ccccc2-c2ccc(CNc3cc(C(F)(F)F)cc4c3CCCC4)cc2)c1=O
IC50 [5]: 25 nM

O=c1c(NC/C=C\COc2cc(CN3CCCCC3)cs2)c(NCCF)c1=O
MIC (Helicobacter pylori): 1.56 µg/mL (≈ 3.83 µM)

CC[C@H](C)[C@H](Nc1c(N(C)O)c(=S)c1=O)C(=O)N[C@@H](Cc1ccccc1)C(=O)NC
IC50 (Interstitial collagenase): 15000 nM

O=c1c(NCCCCc2c3c(nc4cc(Cl)ccc24)CCCC3)c(NCCCCc2c3c(nc4ccc(Cl)cc24)CCCC3)c1=O
IC50 (Cholinesterase): 110 nM | IC50 (Acetylcholinesterase): 2 nM

Nc1nc2c(ncn2[C@@H]2O[C@@H]3CNc4c(c(=O)c4=O)N[C@H]3[C@H]2O)c(=O)[nH]1
pKa [6]: 2.3

CCCCCCCCCCCCCCC(C)Nc1c(NCC[N+](C)(C)C)c(=O)c1=O (configuration not stated)
IC50 (Leishmania infantum): 16300 nM

O=c1c(O)c(-c2ccc3ccccc3c2)c1=O
IC50 [4]: 40000 nM

Nc1c(NCCP(=O)(O)O)c(=O)c1=O
ED50 [7]: 29 mg/kg | IC50 [8]: 470 nM

O=c1c2c(c1=O)N(CCP(=O)(O)O)CCCN2 [PERZINFOTEL]
IC50 [9]: 7600 nM | ED50 [7]: 2.1 mg/kg | IC50 [8]: 30 nM

From ChEMBL document CHEMBL5214881, “Squaric acid analogues in medicinal chemistry” (Eur J Med Chem, 2021)
